From the OligoGym collection
After the bases stand the sugars from the 5' end (letter, count) and the backbone: PS all phosphorothioate, else s phosphorothioate and o phosphodiester by linkage. Methylation of C is not given here. e = 2'-O-(2-methoxyethyl) (MOE); k = constrained ethyl (cEt); d = 2'-deoxy (DNA); m = 2'-O-methyl

Target: HSD17B13
Settings: ASO, HepaRG

| Sequence | target mRNA inhibition (1 µM) [%] | other results |
| --- | --- | --- |
| ATACTATTCTCCAACT (sugars k3 d10 k3, PS) | 25 | – |
| AAACTAGGAAGTGATC (sugars k3 d10 k3, PS) | 39 | – |
| CTATTGTATGAGGTCT (sugars k3 d10 k3, PS) | 42 | – |
| GCTACTTGAACAGTCT (sugars k3 d10 k3, PS) | 66 | – |
| TTACAGCATCAAGACA (sugars k3 d1 m1 d8 k3, PS) | 46 | – |
| CCAAGGCCTGAAGTTC (sugars k3 d10 k3, PS) | 20 | – |
| AGCTACCTCCAAATTC (sugars k3 d10 k3, PS) | 0 | – |
| GTATTAAGACAGTTGA (sugars k3 d10 k3, PS) | 45 | – |
| CTACTTTCAAACCTTG (sugars k3 d10 k3, PS) | 57 | – |
| TCTAAGTTAGCCCCCA (sugars k3 d1 m1 d8 k3, PS) | 7 | – |
| CCAAGGCTTATGAAGT (sugars k3 d10 k3, PS) | 27 | – |
| AAGATACCCAGGTTGC (sugars k3 d10 k3, PS) | 59 | – |
| AAAGTTCATTCGAATT (sugars k3 d10 k3, PS) | 63 | – |
| GTTTTTTGAACCGTAT (sugars k3 d10 k3, PS) | 71 | target mRNA inhibition (0.02 µM): 0%; target mRNA inhibition (0.078 µM): 0%; target mRNA inhibition (0.313 µM): 9%; target mRNA inhibition (1.25 µM): 56%; target mRNA inhibition (5 µM): 74% |
| AGTATGTTTATGTAAG (sugars k3 d10 k3, PS) | 48 | – |
| GGAAATATAGAGGGTC (sugars k3 d10 k3, PS) | 50 | – |
| TTTAAAATAGAGTCGG (sugars k3 d10 k3, PS) | 69 | target mRNA inhibition (0.02 µM): 0%; target mRNA inhibition (0.078 µM): 0%; target mRNA inhibition (0.313 µM): 1%; target mRNA inhibition (1.25 µM): 48%; target mRNA inhibition (5 µM): 77% |
| CCAGAAAGTTCATTCG (sugars k3 d10 k3, PS) | 81 | target mRNA inhibition (0.02 µM): 38%; target mRNA inhibition (0.078 µM): 51%; target mRNA inhibition (0.313 µM): 64%; target mRNA inhibition (1.25 µM): 79%; target mRNA inhibition (5 µM): 91% |

| Sequence | target mRNA inhibition (1 µM) [%] | other results |
| --- | --- | --- |
| AGAGAGTAATCAGTTT (sugars kkdddddddddkekek, PS) | 52 | – |
| CACTCAGCTGCAGTTT (sugars k3 d10 k3, PS) | 13 | – |
| GCATTAATGCCACCCT (sugars k3 d9 k3 e1, PS) | 51 | – |
| CTGCATTAATGCCACC (sugars k3 d10 k3, PS) | 67 | target mRNA inhibition (0.02 µM): 0%; target mRNA inhibition (0.078 µM): 0%; target mRNA inhibition (0.313 µM): 17%; target mRNA inhibition (1.25 µM): 40%; target mRNA inhibition (5 µM): 81% |
| TATGUAATAGCCAGTA (sugars k3 d1 m1 d8 k3, PS) | 43 | – |
| AATCCCAACCAAACTT (sugars k3 d1 m1 d8 k3, PS) | 7 | – |
| CTTAACAAACCTCCAC (sugars k3 d10 k3, PS) | 3 | – |
| GATGTCAGACCTCTGT (sugars k3 d10 k3, PS) | 6 | – |
| ACTGTATTAAGACAGT (sugars k3 d10 k3, PS) | 20 | – |
| CCCAATTATGAATCTG (sugars k3 d10 k3, PS) | 62 | – |
| TTTAGTTAGAATAGTC (sugars k3 d10 k3, PS) | 15 | – |
| GTTTAGCTGATAGGCT (sugars k3 d10 k3, PS) | 47 | – |
| GGTAGCTTTTGTCCAC (sugars k3 d10 k3, PS) | 66 | – |
| GGATGATGTTCATGGC (sugars k3 d10 k3, PS) | 82 | target mRNA inhibition (0.02 µM): 4%; target mRNA inhibition (0.078 µM): 40%; target mRNA inhibition (0.313 µM): 75%; target mRNA inhibition (1.25 µM): 80%; target mRNA inhibition (5 µM): 76% |
| CCTACCAAGAGGGTTT (sugars k3 d10 k3, PS) | 34 | – |
| AGTCTTAAACCTTCCC (sugars k3 d9 k3 e1, PS) | 61 | – |
| ACAGATTGGAATGCTA (sugars k3 d10 k3, PS) | 50 | – |
| ACTAATATTGAGGCAC (sugars k3 d1 m1 d8 k3, PS) | 42 | – |
